Source: US20230172873A1, “Uses and Formulations of Cannabinoids” (priority 2020, published 2023)
Like-named read-outs stand apart in the source and are kept apart here.

Key:
[1] = tested on: LPS-induced acute lung injury; conditions: cited from earlier work
microglial cells = conditions: 1-16 µmol/l (Wu et al. 2012); cited from earlier work
NK, NKT, T and B cells = conditions: healthy rats, cited from earlier work
[2] = tested on: LPS-induced acute lung injury; conditions: mice, 20 mg/kg, cited from earlier work
CD83 = conditions: dendritic cells derived from individuals with HIV infection; cited from earlier work
[3] = mice; 120 mg/kg single dose (Deiana et al. 2012); cited from earlier work
inflammatory processes = conditions: cited from earlier work
[4] = Systemic exposure after i.p. and oral application of CBD in mice; assay type: in vivo; conditions: 20 mg/kg; assuming dose-proportional plasma concentrations
Method: A comparative investigation for systemic exposure after i.p. and oral application of CBD in mice and rats has shown that 120 mg/kg as a single dose leads to a maximum plasma concentration of 14,000 ng/ml in mice (S. Deiana et al. (2012). Plasma and brain pharmacokinetic profile of cannabidiol (CBD), cannabidivarine (CBDV), Delta(9)-tetrahydrocannabivarin (THCV) and cannabigerol (CBG) in rats and mice following oral and intraperitoneal administration and CBD action on obsessive-compulsive behaviour. Psychopharmacology (Berl) 219(3): 859-73).

IL-6 secretion [5] = conditions: cellular models, majority of cases (Chen et al. 2016); cited from earlier work
[6] = log P (n-octanol/water partition coefficient); assay type: physicochemical; conditions: active ingredient of Example 9
Method: In fact, cannabinoids are highly lipophilic molecules (log P 6-7) with very low water solubility (2-10 µg / ml). The log P is the decimal logarithm of the n-octanol/water partition coefficient. The partition coefficient can be determined experimentally. Values typically refer to room temperature (25° C.). The partition coefficient can also be roughly calculated from the molecular structure.

[7] = tested on: ischemia-reperfusion-induced kidney injury; conditions: mice, cited from earlier work
[8] = tested on: chemically induced acute hepatitis; conditions: mice, cited from earlier work
human mononuclear cells = conditions: nanomolar or micromolar concentrations; cited from earlier work
[9] = tested on: activated memory T cell line; conditions: 1-5 µmol/l (Kozela et al. 2013), cited from earlier work
human neutrophils = conditions: McHugh et al. 2008; cited from earlier work
IL-6 secretion [10] = conditions: conversion of the effective concentration
IL-6 receptor = biological target: T1, IL-6 receptor (Homo sapiens, UniProt P08887); conditions: patients with rheumatoid arthritis and systemic juvenile idiopathic arthritis; cited from earlier work
T1 sequence (P08887 20-468): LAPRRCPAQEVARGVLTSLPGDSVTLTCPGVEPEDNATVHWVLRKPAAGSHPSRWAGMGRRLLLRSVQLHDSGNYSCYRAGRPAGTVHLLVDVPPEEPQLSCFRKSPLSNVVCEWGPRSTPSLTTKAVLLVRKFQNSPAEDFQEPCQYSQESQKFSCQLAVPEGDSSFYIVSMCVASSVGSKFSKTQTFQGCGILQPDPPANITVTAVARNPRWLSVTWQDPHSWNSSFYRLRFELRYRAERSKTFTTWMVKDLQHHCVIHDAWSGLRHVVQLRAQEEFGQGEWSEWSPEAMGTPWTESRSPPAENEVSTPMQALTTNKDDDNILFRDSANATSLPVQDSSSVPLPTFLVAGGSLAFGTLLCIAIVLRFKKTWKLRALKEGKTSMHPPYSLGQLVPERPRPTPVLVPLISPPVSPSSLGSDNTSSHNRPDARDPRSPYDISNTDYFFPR

[11] = mice, 0.3-80 mg/kg i.p. 60 minutes before LPS (Ribeiro et al. 2012)

For C=C(C)[C@@H]1CCC(C)=C[C@H]1c1c(O)cc(CCCCC)cc1O [CBD, 2-[(1R,6R)-3-methyl-6-(1-methylethenyl)-2-cyclohexen-1-yl]-5-pentyl-1,3-benzenediol], the “number of leukocytes including macrophages and neutrophils in the bronchoalveolar lavage fluid” value ([1]; mice, 20 mg/kg, after LPS-induced lung inflammation) is listed as “decreases”, the Total leukocytes migration [1, 11] is listed as “significantly decreased” and the myeloperoxidase activity [1, 11] is listed as “significantly decreased”. For the same compound, the “pro-inflammatory cytokine production including TNF-a and IL-6” value [1, 11] was “significantly decreased”, the vascular permeability [1, 11] was “significantly decreased” and the “dose at which effects reached a nearly maximum extent” value ([1]; prophylactic application, i.p.) was 20 mg/kg. The “apoptosis in microglial cells” value (microglial cells) was “induces apoptosis”, the “numbers of natural killer (NK) cells and natural killer T (NKT) cells” value (NK, NKT, T and B cells; 2.5 mg/kg per day) was “increased” and the “numbers of natural killer (NK) cells and natural killer T (NKT) cells” value (NK, NKT, T and B cells; 5 mg/kg per day) was “not affected”. For the same compound, the “number of B cells” value (NK, NKT, T and B cells; daily 5 mg/kg) was “significantly reduced”, the “number of T cells including T helper cells and cytotoxic T cells” value (NK, NKT, T and B cells; daily 5 mg/kg) was “significantly reduced” and the mechanical lung function ([2]; 6 h after LPS (Ribeiro et al. 2014)) was “improved”. The “leukocyte migration (neutrophil, macrophages and lymphocytes) into the lungs” value ([2]; 6 h after LPS) was “decreased”, the “myeloperoxidase activity in the lung tissue” value ([2]; 6 h after LPS) was “decreased” and the “production of proinflammatory cytokines/chemokines” value ([2]; 6 h after LPS) was “reduced”. The vascular permeability ([2]; 6 h after LPS) was “reduced”, the “CD83 dendritic cell activation marker” value (CD83) was “suppresses” and the maximum plasma concentration [3] was 14,000 ng/ml. For the same compound, the “circulating IL-6” value (inflammatory processes; animal models including diabetes, asthma, pancreatitis and hepatitis (Nichols and Kaplan 2020)) was “suppress”, the “regulatory T cells (Tregs)” value (inflammatory processes; several disease models (Nichols and Kaplan 2020)) was “induce regulatory T cells (Tregs)” and the target peak exposure [4] was 2,300 ng/ml. For the same compound, the “effective concentration for suppressive effect on IL-6 secretion” value (IL-6 secretion [5]) was roughly 5 µM, the logP [6] was roughly 6.1 and the kidney protection ([7]; 10 mg/kg after induced kidney injury (Baban et al. 2018)) was “renoprotective”. For the same compound, the “decreased Treg17 and increased Th17 levels” value ([7]; 10 mg/kg after induced kidney injury) was “reversed these effects”, the “expression of MDSCs” value ([8]; 25 mg/kg (Hegde et al. 2011)) was “induces the expression of MDSCs” and the “pro-inflammatory cytokines such as IL-2, TNF-α and IL-6” value ([8]; 25 mg/kg) was “reduction”. For the same compound, the “release of pro-inflammatory cytokines” value (human mononuclear cells) was “suppressed”, the “IL-6 production and secretion” value [9] was “decreased” and the “production of IL-10” value [9] was “increased”. For the same compound, the “autoantigen-specific Th17 cell phenotype (Th17 signature cytokine IL-17)” value ([9]; dose-dependently) was “reduces”, the “migration of human neutrophils” value (human neutrophils) was “inhibits” and the “resulting concentration (5 µM converted with molecular weight 314.5 g/mol)” value (IL-6 secretion [10]) was 1,570 ng/ml.
In the case of “tocilizumab: a humanized anti-IL-6 receptor antibody”, the efficacy (IL-6 receptor) is listed as “verified its efficacy” and the safety (IL-6 receptor) is listed as “tolerable safety”.
